# Reference: ChEMBL document CHEMBL1201862, “PubChem BioAssay data set” (2004)
#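 Grown in 96-well plates, cells were treated for 48 hours with each compound at five concentrations. Insufficient inhibition: endpoint recorded as highest concentration tested. At the GI50, growth is halved.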 Active and inactive are the calls of the source. Cut-off read from the data, not from the text of the source: active = GI50 up to about 1.1 µM and inactive = higher.
# Key:
# Test in all cases: NCI tumour cell line growth inhibition, 48 h
# 786-0 = system: 786-0
# EKVX = system: EKVX
# HCC 2998 = system: HCC 2998
# HCT-116 = system: HCT-116
# HCT-15 = system: HCT-15
# HOP-62 = system: HOP-62
# NCI-H460 = system: NCI-H460
# OVCAR-3 = system: OVCAR-3
# OVCAR-8 = system: OVCAR-8
# SF-539 = system: SF-539
# SK-MEL-5 = system: SK-MEL-5
# SN12C = system: SN12C
# UACC-257 = system: UACC-257
# UO-31 = system: UO-31
# COLO 205 = system: COLO 205
# CCRF-CEM = system: CCRF-CEM
Structure (SMILES),GI50 (786-0),GI50 (EKVX),GI50 (HCC 2998),GI50 (HCT-116),GI50 (HCT-15) [µM],GI50 (HOP-62),GI50 (NCI-H460),GI50 (OVCAR-3),GI50 (OVCAR-8),GI50 (SF-539),GI50 (SK-MEL-5),GI50 (SN12C),GI50 (UACC-257),GI50 (UO-31),GI50 (COLO 205),GI50 (CCRF-CEM)
Cc1ccc(C(=O)NC(C)C)cc1/N=N/N(C)C,> 100 µM (inactive),> 100 µM (inactive),> 100 µM (inactive),> 100 µM (inactive),> 100,> 100 µM (inactive),> 100 µM (inactive),> 100 µM (inactive),> 100 µM (inactive),> 100 µM (inactive),> 100 µM (inactive),> 100 µM (inactive),> 100 µM (inactive),> 100 µM (inactive),–,–
CCOC(=O)C(=O)Nc1nc2c(OCC)cccc2s1,> 100 µM (inactive),> 100 µM (inactive),> 100 µM (inactive),> 100 µM (inactive),> 100,> 100 µM (inactive),> 100 µM (inactive),> 100 µM (inactive),> 100 µM (inactive),> 100 µM (inactive),> 100 µM (inactive),> 100 µM (inactive),> 100 µM (inactive),> 100 µM (inactive),> 100 µM (inactive),–
N#CC(/C(=N/NC(=O)C(=O)NN)C(=O)Nc1nc([N+](=O)[O-])cs1)c1ccc(Cl)cc1 (configuration not stated),> 100 µM (inactive),> 100 µM (inactive),> 100 µM (inactive),> 100 µM (inactive),–,> 100 µM (inactive),> 100 µM (inactive),> 100 µM (inactive),> 100 µM (inactive),–,> 100 µM (inactive),> 100 µM (inactive),> 100 µM (inactive),> 100 µM (inactive),> 100 µM (inactive),89.5 µM (inactive)
Cn1c(N)c(-c2c3ccccc3nc3ccccc23)c(=O)n(C)c1=O,> 100 µM (inactive),> 100 µM (inactive),–,> 100 µM (inactive),> 100,–,–,> 100 µM (inactive),> 100 µM (inactive),> 100 µM (inactive),> 100 µM (inactive),> 100 µM (inactive),–,–,> 100 µM (inactive),> 100 µM (inactive)
CC1=C2CCCC2=C/C(=N/Nc2ccc([N+](=O)[O-])cc2[N+](=O)[O-])CC1,> 100 µM (inactive),> 100 µM (inactive),–,> 100 µM (inactive),–,> 100 µM (inactive),> 100 µM (inactive),> 100 µM (inactive),> 100 µM (inactive),> 100 µM (inactive),> 100 µM (inactive),> 100 µM (inactive),> 100 µM (inactive),> 100 µM (inactive),> 100 µM (inactive),> 100 µM (inactive)
Cc1ccc(S(=O)(=O)n2cc(/C=C/C#N)c(/C=C/C#N)c2)cc1,> 100 µM (inactive),85.1 µM (inactive),–,–,88.9,> 100 µM (inactive),> 100 µM (inactive),37.1 µM (inactive),> 100 µM (inactive),> 100 µM (inactive),39.2 µM (inactive),> 100 µM (inactive),82 µM (inactive),23.4 µM (inactive),> 100 µM (inactive),43.8 µM (inactive)
C#CCN(C)C(=O)N(CC#C)N=O,> 100 µM (inactive),> 100 µM (inactive),–,> 100 µM (inactive),> 100,> 100 µM (inactive),> 100 µM (inactive),> 100 µM (inactive),> 100 µM (inactive),> 100 µM (inactive),> 100 µM (inactive),> 100 µM (inactive),> 100 µM (inactive),> 100 µM (inactive),> 100 µM (inactive),> 100 µM (inactive)
COc1ccc(CNc2nc3ccccc3nc2-c2cccs2)cc1OC,33.5 µM (inactive),59 µM (inactive),30.8 µM (inactive),33.5 µM (inactive),34.8,> 100 µM (inactive),20.8 µM (inactive),51.3 µM (inactive),34 µM (inactive),41 µM (inactive),–,61.5 µM (inactive),23.3 µM (inactive),22.6 µM (inactive),9.98 µM (inactive),33.3 µM (inactive)
